Structures can show the parent of a compound that is named as a salt.
Columns and labels:
LSD1 = LSD1 (Homo sapiens (Human), UniProt O60341); experiment: In vitro enzyme inhibition assay - LSD1 (HTRF); type: biochemical
Description: 1. In Vitro Enzyme Inhibition Assay—LSD1
Initially, a master solution of 90 μM test compound (dissolved in DMSO) was prepared and sequentially diluted with DMSO in a 5-fold concentration gradient to yield a total of 9 concentrations of the compound working solution 1 (90×). Subsequently these 9 concentrations of working solution 1 were sequentially diluted by a 30-fold concentration gradient, i.e., 2 μL of working solution 1 was aspirated and added to 58 μL of Buffer, mixed on a vortex mixer with sufficient shaking to yield 9 concentrations of the screening test compound working solution 2 (3×). […] The mixture was incubated at room temperature for 15 minutes. […] Afterward, 2 μL of a termination solution (containing 5.4 mM 2-PCPA) was added to each well, mixed evenly, and incubated for another 15 minutes. Finally 4 μL of a pre-mixed antibody solution of Eu-anti H3K4 (PerkinElmer, TRF0404-D) and allophycocyanin (Prozyme, PJ27S) (1:1) was added to each well, mixed evenly, and incubated for 60 minutes. […] The inhibition rate was calculated through the following formula: […]
(§1) Note: ‘Negative’ refers to the group without the inhibitor; ‘Blank’ refers to the group without the enzyme.
(§2) The IC50 value was calculated by fitting the inhibition rate by GraphPad Prism software, employing log (inhibitor) vs. response-Variable Slope (four parameters) model.

pan-HDAC = experiment: In vitro enzyme inhibition assay - HDAC (HDAC-Glo I/II), pan-HDAC; type: biochemical
Description: 2. In Vitro Enzyme Inhibition Assay—HDAC
The effect of the compound on the enzymatic activity of pan-HDAC and two isoforms (HDAC1 and HDAC8) was examined using the HDAC-Glo I/II Assay and Screening System assay to assess the level of inhibition of HDAC protease activity and selectivity in each isoform. The proteins and detection reagents were from the HDAC-Glo™ I/II Assay and Screening System (Promega). A 1 mM stock solution of the compound was prepared in DMSO and diluted in a 5-fold gradient to create a series of 8 concentrations, and a specific volume of the highest concentration was diluted 25 times with HDAC Buffer to obtain 4× working solution of the compound. […] The 384-well plate was then read on a multifunctional microplate reader, with the Luminescence channel selected to record Luminescence values (RLU). The inhibition rate was calculated using the following formula: […]
as §1, §2

NCI-H1417 cells = experiment: In vitro cell inhibition assay - H1417 cell proliferation (CellTiter-Glo); type: cell-based; conditions: Homo sapiens, NCI-H1417, H1417 small cell lung cancer cell proliferation
Description: 3. In Vitro Cell Inhibition Assay—H1417 Cell Proliferation
The inhibitory effect of the compounds on cell proliferation was assessed by detecting the number of viable cells using the CellTiter-Glo® reagent. […] The compounds were sequentially diluted in a 5-fold concentration gradient with DMSO to obtain 8 different concentrations o. These were diluted with BEGM (containing 10% FBS) cell culture medium to obtain the compound working solution (2×), which was added to the cell supernatant at 100 μL per well. The incubation continued for 7 days at 37° C., 5% CO2. The plate was then removed and equilibrated to room temperature (25° C.) along with the CellTiter-Glo® mixing reagent for 10-30 minutes. After centrifugation, 100 μL of the culture medium was carefully aspirated from each well, and 85 μL of CellTiter-Glo® reagent was added. The cells were thoroughly mixed with the CellTiter-Glo® mixing reagent using a microplate shaker for 2 min. and then incubated at room temperature for 10 min. The 96-well plate was subsequently placed on a multifunctional microplate reader to record the Luminescence values (RLU). • The inhibition rate was calculated using the following formula: […]
(§3) Note: ‘Negative’ refers to the group without inhibitors; ‘Blank’ refers to the group without cells.
(§4) The IC50 value was determined by fitting the inhibition rate by GraphPad Prism software.

NCI-H69 cells = experiment: In vitro cell inhibition assay - NCI-H69 cell proliferation (CellTiter-Glo); type: cell-based; conditions: Homo sapiens, NCI-H69, H69 small cell lung cancer cell proliferation
Description: 4. In Vitro Cell Inhibition Assay—NCI-H69 Cell Proliferation
The inhibitory effect of the compounds on cell proliferation was assessed by detecting the number of viable cells using the CellTiter-Glo® reagent. NCI-H69 cells in the logarithmic growth phase were collected and inoculated into transparent bottom 96-well plates at a density 1×10^3 cells per well with 100 μL medium, and incubated at 37° C., 5% CO2 overnight. The compounds were sequentially diluted in a 5-fold concentration gradient with DMSO to obtain 8 different concentrations These were then diluted with RPMI-640 (containing 20% FBS) cell culture medium to obtain the compounds working solution (2×), which was added to the cell supernatant at 100 μL per well. The incubation continued for 7 days at 37° C., 5% CO2. The plate was then removed and equilibrated to room temperature (25° C.) along with the CellTiter-Glo® mixing reagent for 10-30 minutes. After centrifugation at 1200 rpm for 5 minutes, 120 μL of the culture medium was carefully aspirated from each well, and 60 μL of CellTiter-Glo® reagent was added. The cells were thoroughly mixed with the CellTiter-Glo® mixing reagent using a microplate shaker for 2 min. and then incubated at room temperature for 10 min. The 96-well plate was subsequently placed on a multifunctional microplate reader to record the Luminescence values (RLU).
The inhibition rate was calculated using the following formula: […]
as §3, §4

Row | IC50 (LSD1) | IC50 (pan-HDAC) | IC50 (NCI-H1417 cells) | IC50 (NCI-H69 cells) | Compound
1 | 23.8 nM | 21.6 nM | > 1000 nM | 3270 nM | N#Cc1ccc(-c2nc(N3CCC(N)CC3)cc(OCCCCCCC(=O)NO)c2-c2ccc(OCCO)cc2)cc1F [Example 17, 7-((6-(4-Aminopiperidin-1-yl)-2-(4-cyano-3-fluorophenyl)-3-(4-(2-hydroxyethoxy)phenyl)pyridin-4-yl)oxy)-N-hydroxyheptanamide formate]
2 | 4.98 nM | 143 nM | 7.9 nM | 496 nM | CC1(NCc2ccc(/C=C/C(=O)NO)cc2)CCN(c2ncc(-c3ccc(OC(F)(F)F)c(O)c3)c(-c3ccc(C#N)c(F)c3)c2C#N)CC1 [Example 214, (E)-3-(4-(((1-(3-Cyano-4-(4-cyano-3-fluorophenyl)-5-(3-hydroxy-4-(trifluoromethoxy)phenyl)pyridin-2-yl)-4-methylpiperidin-4-yl)amino)methyl)phenyl)-N-hydroxyacrylamide formate]
3 | 0.21 nM | 9.28 nM | 7.13 nM | 149 nM | COc1ccc(-c2cnc(N3CCC(NCc4ccc(CC(F)C(=O)NO)cc4)CC3)c(C#N)c2-c2ccc(C#N)c(F)c2)cc1O (stereo not shown) [Example 219, 3-(4-((1-(3-Cyano-4-(4-cyano-3-fluorophenyl)-5-(3-hydroxy-4-methoxyphenyl)pyridin-2-yl)piperidin-4-yl)amino)methyl) phenyl)-2-fluoro-N-hydroxypropanamide formate]
4 | 0.42 nM | 937 nM | 6.86 nM | 2290 nM | COc1ccc(-c2cnc(N3CCC(NCc4ccc(/C=C(\C)C(=O)NO)nc4)CC3)c(C#N)c2-c2ccc(C#N)c(F)c2)cc1O [Example 220, (E)-3-(5-(((1-(3-Cyano-4-(4-cyano-3-fluorophenyl)-5-(3-hydroxy-4-methoxyphenyl)pyridin-2-yl)piperidin-4-yl)amino)methyl)pyridin-2-yl)-N-hydroxy-2-methylacrylamide formate]
5 | 0.03 nM | 11.5 nM | 6.42 nM | 35.8 nM | COc1ccc(-c2cnc(N3CCC(NCc4ccc(CCC(=O)NO)cc4Cl)CC3)c(C#N)c2-c2ccc(C#N)c(F)c2)cc1O [Example 222, 3-(3-chloro-4-((1-(3-cyano-4-(4-cyano-3-fluorophenyl)-5-(3-hydroxy-4-methoxyphenyl)pyridin-2-yl)piperidin-4-yl)amino)methyl) phenyl)-N-hydroxypropanamide formate]
6 | 0.35 nM | 3.43 nM | 8.51 nM | 78 nM | CC(C)(O)Cn1nnc2cc(-c3cnc(N4CCC(NCc5ccc(/C=C/C(=O)NO)nc5)CC4)c(C#N)c3-c3ccc(C#N)c(F)c3)ccc21 [Example 225, (E)-3-(5-(((1-(3-Cyano-4-(4-cyano-3-fluorophenyl)-5-(1-(2-hydroxy-2-methylpropyl)-1H-benzo[d][1,2,3]triazol-5-yl)pyridin-2-yl)piperidin-4-yl)amino)methyl)pyridin-2-)-N-hydroxyacrylamide formate]

Second part, the molecule before the results:

Row | Compound | IC50 (LSD1) | IC50 (pan-HDAC) | IC50 (NCI-H1417 cells) | IC50 (NCI-H69 cells)
7 | COc1ccc(-c2c(OCCCCCCC(=O)NO)cc(N3CC4CC3CC4N)nc2-c2ccc(C#N)c(F)c2)cc1O (stereo not shown) [Example 15, 7-((6-(5-Amino-2-azabicyclo[2.2.1]heptan-2-yl)-2-(4-cyano-3-fluorophenyl)-3-(3-hydroxy-4-methoxyphenyl)pyridin-4-yl)oxy)-N-hydroxyheptanamide hydrochloride] | 1.45 nM | 27.5 nM | 221 nM | 2990 nM
8 | N#Cc1ccc(-c2nc(N3CC4CC3CC4N)n3ccnc3c2-c2ccc(OCCCCCCC(=O)NO)c(O)c2)cc1F (stereo not shown) [Example 22, 7-(4-(5-(5-(5-Amino-2-azabicyclo[2.2.1]heptan-2-yl)-7-(4-cyano-3-fluorophenyl)imidazo[1,2-c]pyrimidin-8-yl)-2-hydroxyphenoxy)-N-hydroxyheptanamide hydrochloride] | 0.31 nM | 144 nM | 106 nM | 4730 nM
9 | COc1ccc(-c2c(-c3ccc(C#N)c(F)c3)nc(N3CCC(NCc4ccc(/C=C/C(=O)NO)cc4)CC3)n(C)c2=O)cc1O [Example 67, (E)-3-(4-(((1-(4-(4-Cyano-3-fluorophenyl)-5-(3-hydroxy-4-methoxy-phenyl)-1-methyl-6-oxo-1,6-dihydro-pyrimidin-2-yl)piperidin-4-yl)amino)methyl)phenyl)-N-hydroxy-acrylamide formate] | 1.89 nM | 39 nM | 21.2 nM | 444 nM
10 | COc1ccc(-c2cnc(N3CCC(C)(NCc4ccc(/C=C/C(=O)NO)nc4)CC3)c(C#N)c2-c2ccc(C#N)c(F)c2)cc1O [Example 213, (E)-3-(5-(((1-(3-Cyano-4-(4-cyano-3-fluorophenyl)-5-(3-hydroxy-4-methoxyphenyl)pyridin-2-yl)-4-methylpiperidin-4-yl)amino)methyl)pyridin-2-yl)-N-hydroxyacrylamide formate] | 2.12 nM | 19.7 nM | 7.32 nM | 76.1 nM
11 | CC(C)(O)COc1ccc(-c2cnc(N3CCC(C)(NCc4ccc(/C=C/C(=O)NO)cc4)CC3)c(C#N)c2-c2ccc(C#N)c(F)c2)cc1O [Example 215, (E)-3-(4-(((1-(3-Cyano-4-(4-cyano-3-fluorophenyl)-5-(3-hydroxy-4-(2-hydroxy-2-methylpropoxy)phenyl)pyridin-2-yl)-4-methylpiperidin-4-yl)amino)methyl)phenyl)-N-hydroxyacrylamide formate] | 0.39 nM | 68 nM | 2.65 nM | 295 nM
12 | COc1ccc(-c2cnc(N3CCC(NCc4ccc(SCC(=O)NO)cc4)CC3)c(C#N)c2-c2ccc(C#N)c(F)c2)cc1O [Example 216, 2-((4-((1-(3-cyano-4-(4-cyano-3-fluorophenyl)-5-(3-hydroxy-4-methoxyphenyl)pyridin-2-yl)piperidin-4-yl)amino)methyl)phenyl) thio)-N-hydroxyacetamide formate] | 0.15 nM | 3.57 nM | 6.06 nM | 51.6 nM
13 | CC(C)(O)Cn1nnc2cc(-c3cnc(N4CCC(NCc5ccc(/C=C/C(=O)NO)cn5)CC4)c(C#N)c3-c3ccc(C#N)c(F)c3)ccc21 [Example 224, (E)-3-(6-(((1-(3-Cyano-4-(4-cyano-3-fluorophenyl)-5-(1-(2-hydroxy-2-methylpropyl)-1H-benzo[d][1,2,3]triazol-5-yl)pyridin-2-yl)piperidin-4-yl)amino)methyl)pyridin-3-yl)-N-hydroxyacrylamide formate] | 0.19 nM | 10.6 nM | 24.5 nM | 305 nM
